According to article PMC11770821, “Pharmacokinetics and pharmacodynamics of an innovative psychedelic N,N-dimethyltryptamine/harmine formulation in healthy participants: a randomized controlled trial” (International Journal of Neuropsychopharmacology, 2025):

Tests used:
[1] = system: healthy male volunteers; assay: Acute subjective drug effects, visual analog scales (VAS 0–100); format: in vivo, human; conditions: for subjective ratings of acute drug effects compared to placebo: 100 mg buccal harmine alone vs placebo
Description: The detailed dosing scheme is depicted in Figure 1.
The intensity of acute subjective effects was monitored with visual analog scales (VASs, range 0–100) on a touchscreen tablet throughout the study day at baseline (−90), 0, 30, 60, 90, 120, 180, 240, and 300 after the first DMT/placebo administration. At 360 minutes after the first DMT/placebo administration, a phenomenological interview was conducted with participants to further explore acute subjective drug effects. For PK-PD analyses, we included VAS for intensity, liking, disliking, and arousal in the present paper. Further analyses on a set of neurophysiological, psychometric, and phenomenological assessments will be presented in forthcoming manuscripts.

[2] = system: healthy male volunteers; assay: Undesired drug effects / adverse events questionnaire (y/n and VAS 0–100); format: in vivo, human
Description: The participants were monitored with regard to AEs throughout the experiment by the study physician, including questionnaire-based assessments (VAS, 0-100 or y/n) of physical and mental discomfort, breathing difficulties, racing heartbeat, chest or abdominal pains, unpleasant body sensations/muscle pain, headache, nausea, vomiting, and fainting at baseline (−105), 0, 30, 60, 120, 240, and 300 minutes after DMT/placebo administration. Vital signs (systolic/diastolic blood pressure [DBP], heart rate, body temperature [BT]) were assessed using a semiautomatic blood pressure and oral temperature recording device throughout the study at baseline (−45), 0, 30, 120, 150, 210, and 270 minutes after the first DMT/placebo administration.

[3] = 0 min after first intranasal DMT/placebo administration
[4] = 60 min after first intranasal DMT/placebo administration
[5] = 120 min after first intranasal DMT/placebo administration
[6] = 180 min after first intranasal DMT/placebo administration

SMILES: COc1ccc2c(c1)[nH]c1c(C)nccc12 [Harmine, harmine]
- subjective ratings of acute drug effects compared to placebo [1]: no statistical differences
- subjective ratings of acute drug effects compared to placebo ([1]; listed as HAR): no significant difference
- effect size, intensity ratings, contrast vs PLA ([1]; at 90 minutes (max. intensity ratings)): 0.133
- effect size, intensity ratings, contrast vs PLA ([1]; at 240 minutes): 0.127
- peak effects of arousal, VAS ([1]; mean (SD)): 9.9 % of the maximal possible scor
- peak effects of disliking, VAS ([1]; mean (SD)): 7.8 % of the maximal possible scor
- peak effects of liking, VAS ([1]; mean (SD)): 20.0 % of the maximal possible scor
- peak intensity, VAS ([1]; mean (SD)): 7.6 % of the maximal possible scor
- Breathing difficulty, mean intensity [0–100] (SD) [2, 3]: 18 (25)
- Breathing difficulty, number of participants reporting [2, 3]: 3
- Chest pain, mean intensity [0–100] (SD) [2, 3]: 24 (32)
- Chest pain, number of participants reporting [2, 3]: 2
- Fainting, mean intensity [0–100] (SD) [2, 3]: 0 (0)
- Fainting, number of participants reporting [2, 3]: 0
- Head ache, mean intensity [0–100] (SD) [2, 3]: 3 (0)
- Head ache, number of participants reporting [2, 3]: 1
- Heart racing, mean intensity [0–100] (SD) [2, 3]: 28 (35)
- Heart racing, number of participants reporting [2, 3]: 2
- Muscle ache, mean intensity [0–100] (SD) [2, 3]: 9 (7)
- Muscle ache, number of participants reporting [2, 3]: 6
- Nausea, mean intensity [0–100] (SD) [2, 3]: 2 (0)
- Nausea, number of participants reporting [2, 3]: 1
- Psychological distress, mean intensity [0–100] (SD) [2, 3]: 6 (2)
- Psychological distress, number of participants reporting [2, 3]: 3
- Somatic distress, mean intensity [0–100] (SD) [2, 3]: 18 (14)
- Somatic distress, number of participants reporting [2, 3]: 5
- Stomach ache, mean intensity [0–100] (SD) [2, 3]: 2 (0)
- Stomach ache, number of participants reporting [2, 3]: 1
- Vomiting, mean intensity [0–100] (SD) [2, 3]: 0 (0)
- Vomiting, number of participants reporting [2, 3]: 0
- Breathing difficulty, mean intensity [0–100] (SD) [2, 4]: 21 (28)
- Breathing difficulty, number of participants reporting [2, 4]: 2
- Chest pain, mean intensity [0–100] (SD) [2, 4]: 13 (8)
- Chest pain, number of participants reporting [2, 4]: 2
- Fainting, mean intensity [0–100] (SD) [2, 4]: 0 (0)
- Fainting, number of participants reporting [2, 4]: 0
- Head ache, mean intensity [0–100] (SD) [2, 4]: 34 (47)
- Head ache, number of participants reporting [2, 4]: 2
- Heart racing, mean intensity [0–100] (SD) [2, 4]: 9 (0)
- Heart racing, number of participants reporting [2, 4]: 1
- Muscle ache, mean intensity [0–100] (SD) [2, 4]: 22 (0)
- Muscle ache, number of participants reporting [2, 4]: 2
- Nausea, mean intensity [0–100] (SD) [2, 4]: 11 (10)
- Nausea, number of participants reporting [2, 4]: 3
- Psychological distress, mean intensity [0–100] (SD) [2, 4]: 8 (8)
- Psychological distress, number of participants reporting [2, 4]: 2
- Somatic distress, mean intensity [0–100] (SD) [2, 4]: 9 (5)
- Somatic distress, number of participants reporting [2, 4]: 5
- Stomach ache, mean intensity [0–100] (SD) [2, 4]: 52 (0)
- Stomach ache, number of participants reporting [2, 4]: 1
- Vomiting, mean intensity [0–100] (SD) [2, 4]: 0 (0)
- Vomiting, number of participants reporting [2, 4]: 0
- Breathing difficulty, mean intensity [0–100] (SD) [2, 5]: 7 (8)
- Breathing difficulty, number of participants reporting [2, 5]: 3
- Chest pain, mean intensity [0–100] (SD) [2, 5]: 4 (3)
- Chest pain, number of participants reporting [2, 5]: 3
- Fainting, mean intensity [0–100] (SD) [2, 5]: 0 (0)
- Fainting, number of participants reporting [2, 5]: 0
- Head ache, mean intensity [0–100] (SD) [2, 5]: 11 (0)
- Head ache, number of participants reporting [2, 5]: 1
- Heart racing, mean intensity [0–100] (SD) [2, 5]: 5 (5)
- Heart racing, number of participants reporting [2, 5]: 3
- Muscle ache, mean intensity [0–100] (SD) [2, 5]: 10 (9)
- Muscle ache, number of participants reporting [2, 5]: 3
- Nausea, mean intensity [0–100] (SD) [2, 5]: 15 (0)
- Nausea, number of participants reporting [2, 5]: 1
- Psychological distress, mean intensity [0–100] (SD) [2, 5]: 4 (5)
- Psychological distress, number of participants reporting [2, 5]: 2
- Somatic distress, mean intensity [0–100] (SD) [2, 5]: 7 (5)
- Somatic distress, number of participants reporting [2, 5]: 7
- Stomach ache, mean intensity [0–100] (SD) [2, 5]: 30 (37)
- Stomach ache, number of participants reporting [2, 5]: 2
- Vomiting, mean intensity [0–100] (SD) [2, 5]: 0 (0)
- Vomiting, number of participants reporting [2, 5]: 0
- Breathing difficulty, mean intensity [0–100] (SD) [2, 6]: 0 (0)
- Breathing difficulty, number of participants reporting [2, 6]: 0
- Chest pain, mean intensity [0–100] (SD) [2, 6]: 0 (0)
- Chest pain, number of participants reporting [2, 6]: 0
- Fainting, mean intensity [0–100] (SD) [2, 6]: 0 (0)
- Fainting, number of participants reporting [2, 6]: 0
- Head ache, mean intensity [0–100] (SD) [2, 6]: 72 (0)
- Head ache, number of participants reporting [2, 6]: 1
